# Key:
# NOX = experiment: NOX-related ROS induced by high glucose (NADPH oxidative activity, luminescence); assay type: cell-based, human
# Protocol: The human immortal podocytes were divided into 6 groups: blank group, high glucose group (30 mM), high glucose+10 μMATG, high glucose+20 μMATG, high glucose+50 μMATG, high glucose+100 μMATG.
# The effects of ATG on NOX producing ROS were observed by measuring the oxidative activity of NADPH (reduced coenzyme II): The […] were washed twice with HBSS (Hanks balanced salt solution), during which the cell culture dish was placed on ice. The cells were scraped with frozen HBSS containing protease inhibitors, then homogenated. The protein concentration was measured and calculated. 30 μg protein was added to each well and 25 μM […] (Santa Cruz) and 200 μM NADPH (Cayman Chemical) were also added. After staying in the dark room for 10 minutes at 37° C., the luminescence of each well was measured. Results: There was significant difference of ROS between high glucose group and normal group (P<0.05). The different concentration of ATG (10 μM, 20 μM, 50 μM, 100 μM) could reduce the amount of ROS induced by NOX. See Table 7 and FIG. 10 for the details.
# [1] = target: T1, Protein transport protein Sec61 subunit alpha isoform 1 (Homo sapiens, UniProt P61619); experiment: DARTS mass spectrometry of 293T lysate after ATG; assay type: binding; conditions: ATG 300 μM, pronase 1:1000, S61A1_HUMAN
# T1 construct: endogenous in cells; host or cells: 293T
# T1 sequence (P61619 whole entry, canonical isoform): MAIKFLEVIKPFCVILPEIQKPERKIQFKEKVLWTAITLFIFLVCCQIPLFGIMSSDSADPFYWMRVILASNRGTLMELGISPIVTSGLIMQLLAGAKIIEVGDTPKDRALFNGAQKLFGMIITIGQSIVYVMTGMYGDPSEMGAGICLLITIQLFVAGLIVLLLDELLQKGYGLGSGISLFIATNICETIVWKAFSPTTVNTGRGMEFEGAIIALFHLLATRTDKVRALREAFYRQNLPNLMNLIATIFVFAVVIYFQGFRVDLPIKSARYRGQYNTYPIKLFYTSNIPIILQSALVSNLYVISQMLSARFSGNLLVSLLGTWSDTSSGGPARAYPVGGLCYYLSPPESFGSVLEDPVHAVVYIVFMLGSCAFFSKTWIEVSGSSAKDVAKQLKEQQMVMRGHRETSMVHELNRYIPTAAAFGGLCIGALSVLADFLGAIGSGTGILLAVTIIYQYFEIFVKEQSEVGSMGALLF
# Protocol: (§1) 293T cells were digested with M-PER mammalian protein extraction buffer (78501 ThermoFisher) and phosphatase inhibitor (50 mM NaF, 10 mM β-glycerophosphate, 5 mM sodium pyrophosphate, 2 mM Na3VO4); and the protein concentration is determined by Bradford method (500-0006 Bio-rad). ATG was either added or not in the cell lysate. If added, the concentration of ATG was 300 μM. The cells were incubated at room temperature for 1 h. The cells were then lysed by incubating for 20 minutes at room temperature with different concentrations of pronase at 1:1000 (10165921001, Roche). The two groups of lysates are subjected to mass spectrometry and then compared.
# NOX4 [2] = experiment: NOX4 protein expression in human immortal podocytes under high glucose (Western blot); assay type: cell-based; conditions: ATG 10 μmol/L
# Text: The detection method of Western Blot and mRNA used in the present embodiment is a detection method commonly used by person skilled in the art, and the specific detection method is described in “Molecular Biology Laboratory Manual” (People's Military Medical Press, published in 2011 Jun. 1). 3.1 Western blot and Realtime PCR confirmed that ATG in human immortal podocytes can inhibit the overexpression of NOX4 caused by high glucose stimuli, see table 5 and FIG. 6. The expression of NOX4 in the total protein, membrane protein and mitochondrial protein of human immortal podocytes was detected in the experiment. […] The meanings of the symbols in FIG. 6 are as follows: HG: high glucose (glucose […]); T: total protein; Tmeb cell membrane protein; Mito: mitochondrial protein.
# NOX4 [3] = experiment: NOX4 protein expression in glomeruli of STZ-eNOS−/− mice (Western Blot); assay type: in vivo; conditions: for NOX4/GAPDH mean: glomeruli, Western Blot
# Text: The detection method of Western Blot and mRNA used in the present embodiment is a detection method commonly used by person skilled in the art, and the specific detection method is described in “Molecular Biology Laboratory Manual” (People's Military Medical Press, published in 2011 Jun. 1). 2. ATG can decrease NOX4's protein and mRNA expression in glomeruli of STZ-eNOS^−/− mice.
# PP2AB = target: T2, PP2AB (Homo sapiens, UniProt P62714); experiment: DARTS-western blot of ATG binding to PP2A in 293T cells; conditions: ATG 100, 300, 1000 μM, pronase 1:1000, FIG. 1
# T2 construct: endogenous in cells; host or cells: 293T
# T2 sequence (P62714 whole entry): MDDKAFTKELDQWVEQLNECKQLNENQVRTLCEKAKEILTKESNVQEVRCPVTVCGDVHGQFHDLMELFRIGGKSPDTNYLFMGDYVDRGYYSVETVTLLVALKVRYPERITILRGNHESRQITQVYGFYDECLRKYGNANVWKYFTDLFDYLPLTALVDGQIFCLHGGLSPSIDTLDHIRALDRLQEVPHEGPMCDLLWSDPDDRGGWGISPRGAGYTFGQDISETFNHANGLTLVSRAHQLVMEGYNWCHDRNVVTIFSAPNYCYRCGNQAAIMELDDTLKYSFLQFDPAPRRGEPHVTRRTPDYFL
# Protocol: We used ATG to stimulate 293T cells. […] The applied ATG was formulated at 3 different concentrations: 100 μM, 300 μM, 1000 μM. So there are 5 groups of Western Blot: blank group (without addition of pronase), DMSO (pronase 1:1000), ATG 100 μM (pronase 1:1000), ATG 300 μM (pronase 1:1000), ATG 1000 μM (Pronase 1:1000). […] While pronase can digest proteins, it digests more ATG-unbinding proteins than ATG-binding proteins. […] This method is called DARTS.
# In FIG. 1: DARTS-western blot confirmed the binding of ATG to PP2AB; PP2A had three structural units, and ATG bound to the catalytic unit. The catalyst unit of the protein called PP2AB, the gene called PPP2CB.
# Tubulin beta-6 chain = target: T3, Tubulin beta-6 chain (Homo sapiens, UniProt Q9BUF5); experiment: DARTS mass spectrometry of 293T lysate after ATG; assay type: binding; conditions: ATG 300 μM, pronase 1:1000, TBB6_HUMAN
# T3 construct: endogenous in cells; host or cells: 293T
# T3 sequence (Q9BUF5 whole entry): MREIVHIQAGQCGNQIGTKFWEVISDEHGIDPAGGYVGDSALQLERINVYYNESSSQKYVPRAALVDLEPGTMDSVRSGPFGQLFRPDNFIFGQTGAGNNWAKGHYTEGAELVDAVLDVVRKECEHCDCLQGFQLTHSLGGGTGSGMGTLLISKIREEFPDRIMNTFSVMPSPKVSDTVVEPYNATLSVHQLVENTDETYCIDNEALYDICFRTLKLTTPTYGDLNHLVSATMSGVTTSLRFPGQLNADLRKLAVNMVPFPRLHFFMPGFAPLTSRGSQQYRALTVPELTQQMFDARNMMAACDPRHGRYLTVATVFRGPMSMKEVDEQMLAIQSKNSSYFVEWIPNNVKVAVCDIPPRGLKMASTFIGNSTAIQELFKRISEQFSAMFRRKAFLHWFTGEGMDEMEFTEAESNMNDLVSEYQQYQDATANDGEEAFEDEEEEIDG
# T3 sequence (P68363 whole entry partner): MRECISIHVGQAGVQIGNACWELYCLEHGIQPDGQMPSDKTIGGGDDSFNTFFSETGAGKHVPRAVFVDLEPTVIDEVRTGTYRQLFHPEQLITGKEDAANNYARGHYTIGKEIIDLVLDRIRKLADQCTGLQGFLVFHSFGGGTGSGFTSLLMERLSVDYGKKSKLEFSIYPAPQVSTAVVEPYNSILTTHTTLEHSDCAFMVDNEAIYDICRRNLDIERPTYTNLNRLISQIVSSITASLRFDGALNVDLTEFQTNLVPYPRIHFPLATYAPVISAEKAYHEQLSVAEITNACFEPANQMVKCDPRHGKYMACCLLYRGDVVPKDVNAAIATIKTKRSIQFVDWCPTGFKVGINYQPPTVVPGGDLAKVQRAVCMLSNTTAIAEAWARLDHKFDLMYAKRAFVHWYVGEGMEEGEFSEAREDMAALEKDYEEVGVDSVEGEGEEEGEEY
# Protocol: as §1
# (§2) Furthermore, since the content of PP2A in cells is very low in the normal state, it is considered that the binding ratio of ATG and PP2A is high.
# Tubulin beta-3 chain = target: T4, Tubulin beta-3 chain (Homo sapiens, UniProt Q13509); experiment: DARTS mass spectrometry of 293T lysate after ATG; assay type: binding; conditions: ATG 300 μM, pronase 1:1000, TBB3_HUMAN
# T4 construct: endogenous in cells; host or cells: 293T
# T4 sequence (Q13509 whole entry): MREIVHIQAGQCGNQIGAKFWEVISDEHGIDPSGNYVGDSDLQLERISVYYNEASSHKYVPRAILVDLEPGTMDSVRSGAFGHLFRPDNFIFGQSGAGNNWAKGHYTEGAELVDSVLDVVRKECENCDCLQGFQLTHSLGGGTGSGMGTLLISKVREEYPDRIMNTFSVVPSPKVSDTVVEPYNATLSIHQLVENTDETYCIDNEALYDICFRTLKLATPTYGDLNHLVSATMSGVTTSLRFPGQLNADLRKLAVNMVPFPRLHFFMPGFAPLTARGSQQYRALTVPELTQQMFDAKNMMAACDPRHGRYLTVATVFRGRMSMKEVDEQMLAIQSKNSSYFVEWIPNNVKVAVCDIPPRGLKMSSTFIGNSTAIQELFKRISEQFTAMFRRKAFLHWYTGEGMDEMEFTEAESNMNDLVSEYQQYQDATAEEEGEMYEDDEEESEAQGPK
# T4 sequence (P68363 whole entry partner): as the sequence (P68363 whole entry partner) above
# Protocol: as §1, §2
# [4] = target: T5, Serine/threonine-protein phosphatase 2A catalytic subunit beta isoform (Homo sapiens, UniProt P62714); experiment: DARTS mass spectrometry of 293T lysate after ATG; assay type: binding
# T5 construct: endogenous in cells; host or cells: 293T
# T5 sequence (P62714 whole entry, canonical isoform): as the sequence (P62714 whole entry) above
# Protocol: as §1, §2
# [5] = ATG 300 μM, pronase 1:1000, PP2AB_HUMAN
compound,measurement,setting,value
"COc1cc(C[C@H]2C(=O)OC[C@@H]2Cc2ccc(OC)c(OC)c2)ccc1O [ATG, Arctigenin]","NOX-related ROS (luminescence), mean",NOX; HG + 10 μM ATG,1030
same,"NOX-related ROS (luminescence), mean",NOX; HG + 20 μM ATG,864
same,"NOX-related ROS (luminescence), mean",NOX; HG + 50 μM ATG,794
same,"NOX-related ROS (luminescence), mean",NOX; HG + 100 μM ATG,832
same,Ratio (ATG/DMSO),[1],4.7
same,Spectral Count (ATG),[1],7
same,T-NOX4/β-actin mean,"NOX4 [2]; High glucose-ATG, total protein, podocytes",1.13
same,"expression of NOX4 in total protein, membrane protein and mitochondrial protein","NOX4 [2]; high glucose, FIG. 6",can inhibit the expression of NOX4 in the above three kinds of structures
same,NOX4/GAPDH mean,NOX4 [3]; Normal group-ATG,0.13
same,NOX4/GAPDH mean,NOX4 [3]; STZ-ATG,0.14
same,"NOX4's protein expression in glomerular, versus untreated group",NOX4 [3]; STZ-eNOS mice administered with ATG,significantly less than that of the untreated group
same,PP2A binding (DARTS-western blot),PP2AB,PP2A binding increased with the increasing concentration of ATG
same,Ratio (ATG/DMSO),Tubulin beta-6 chain,13.6
same,Spectral Count (ATG),Tubulin beta-6 chain,25
same,Ratio (ATG/DMSO),Tubulin beta-3 chain,25.6
same,Spectral Count (ATG),Tubulin beta-3 chain,49
same,Ratio (ATG/DMSO),[4]; [5],7.8
same,Spectral Count (ATG),[4]; [5],14
same,binding ratio of ATG and PP2A,[4]; conclusion from mass spectrometry,high

# — patent US9994533B2, “Method of preparing ATG's analogue, and the application of ATG and it's analogue” (Longhua Hospital Shanghai University of Traditional Chinese …, priority 2016, dated 2018)
